The assay deals with T1, SIRT1 (Homo sapiens, UniProt Q96EB6).
T1 sequence (Q96EB6 1-747): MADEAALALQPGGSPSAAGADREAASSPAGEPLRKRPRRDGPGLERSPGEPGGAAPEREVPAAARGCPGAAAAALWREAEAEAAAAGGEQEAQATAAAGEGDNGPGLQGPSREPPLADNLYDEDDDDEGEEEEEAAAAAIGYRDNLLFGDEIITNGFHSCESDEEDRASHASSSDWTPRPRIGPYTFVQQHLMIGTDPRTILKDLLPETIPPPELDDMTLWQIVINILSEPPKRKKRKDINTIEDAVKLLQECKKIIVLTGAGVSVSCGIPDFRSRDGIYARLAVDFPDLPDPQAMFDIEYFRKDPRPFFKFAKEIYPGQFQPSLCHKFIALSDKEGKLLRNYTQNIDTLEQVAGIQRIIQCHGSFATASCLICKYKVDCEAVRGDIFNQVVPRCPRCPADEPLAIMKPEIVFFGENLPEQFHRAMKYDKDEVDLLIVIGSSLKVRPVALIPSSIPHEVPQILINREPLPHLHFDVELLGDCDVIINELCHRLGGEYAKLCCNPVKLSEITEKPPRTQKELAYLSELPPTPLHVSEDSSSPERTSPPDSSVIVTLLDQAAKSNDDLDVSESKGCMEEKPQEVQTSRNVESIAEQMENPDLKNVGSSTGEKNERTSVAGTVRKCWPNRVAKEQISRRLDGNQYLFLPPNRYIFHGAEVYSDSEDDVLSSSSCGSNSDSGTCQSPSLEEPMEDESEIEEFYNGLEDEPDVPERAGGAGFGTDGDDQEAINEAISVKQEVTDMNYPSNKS
In words: Mass spectrometry based SIRT1 deacetylation (activation) assay. The note with it: 0.5 μM peptide substrate, 120 μM βNAD+, 10 nM SIRT1, 25 min at 25° C.; for Emax: 25 min, read-out: % Fold Act. (percent maximum fold activation). The assay is classed as biochemical.

For the compound `CN(C)CCNc1cc(C(=O)Nc2ccccc2C(=O)Nc2ccccc2)nc(-c2ccccc2)n1` [Compound 128, 6-(2-(dimethylamino)ethylamino)-2-phenyl-N-(2-(phenylcarbamoyl)phenyl)pyrimidine-4-carboxamide], the EC1.5 result is “B (EC1.5>1 and ≦10 uM)”; the Emax lay in the range of 150 to 300%.
In the case of `CN(C)CCNc1cc(C(=O)Nc2ccccc2C(=O)NCCC(=O)O)nc(-c2ccccc2)n1` [Compound 130, 3-(2-(6-(2-(dimethylamino)ethylamino)-2-phenylpyrimidine-4-carboxamido)benzamido)propanoic acid], the EC1.5 result is “B (EC1.5>1 and ≦10 uM)”; the Emax lay in the range of 150 to 300%.
Turning to `CN(C)CCNc1cc(C(=O)Nc2ccccc2C(=O)c2ccccc2)nc(-c2ccccc2)n1` [Compound 131], the EC1.5 entry is “B (EC1.5>1 and ≦10 uM)”; the Emax was 150 to 300%.
With `C/C(=N\O)c1ccccc1NC(=O)c1cc(NCCN(C)C)nc(-c2ccccc2)n1` [Compound 132], the EC1.5 result is “B (EC1.5>1 and ≦10 uM)”; the Emax lay within 150 to 300%.
For `CC(O)c1ccccc1NC(=O)c1cc(NCCN(C)C)nc(-c2ccccc2)n1` (stereo not drawn) [Compound 133], the EC1.5 entry is “C (EC1.5>10 uM)” and the Emax lay within 150 to 300%.
Turning to `CC(=O)c1ccccc1NC(=O)c1cc(N2CCOCC2)nc(-c2ccccc2)n1` [Compound 134], the EC1.5 result is listed as “A (EC1.5≦1 uM)” and the Emax lay in the range of 150 to 300%.
Consider `CCN(CC)CCNc1cc(C(=O)Nc2ccccc2C(C)=O)nc(-c2ccccc2)n1` [Compound 135], for which the EC1.5 result was “B (EC1.5>1 and ≦10 uM)”; the Emax is at least 300%.
On to `CN(C)CCNc1cc(C(=O)Nc2ccccc2Br)nc(-c2ccccc2)n1` [Compound 136], for which the EC1.5 entry is “B (EC1.5>1 and ≦10 uM)”; the Emax fell in the range of 150 to 300%.
Take `CC(=O)c1ccccc1NC(=O)c1cc(NC2CCN(C(C)C)CC2)nc(-c2ccccc2)n1` [Compound 137]: the EC1.5 entry was “A (EC1.5≦1 uM)” and the Emax is at least 300%.
With `CC(=O)c1ccccc1NC(=O)c1cc(N2CCNCC2)nc(-c2ccccc2)n1` [Compound 138], the EC1.5 entry is “B (EC1.5>1 and ≦10 uM)”; the Emax was at least 300%.
Regarding `CC(=O)c1ccccc1NC(=O)c1cc(NC2CCNCC2)nc(-c2ccccc2)n1` [Compound 140], the EC1.5 result is “A (EC1.5≦1 uM)” and the Emax is at least 300%.
Turning to `COCCN(CCOC)c1cc(C(=O)Nc2ccccc2C(C)=O)nc(-c2ccccc2)n1` [Compound 141], the EC1.5 result is reported as “A (EC1.5≦1 uM)” and the Emax is at least 300%.
In the case of `CC(C)C(=O)c1ccccc1NC(=O)c1cc(NCCN(C)C)nc(-c2ccccc2)n1` [Compound 142], the EC1.5 entry was “B (EC1.5>1 and ≦10 uM)”; the Emax was in the range of 150 to 300%.
In the case of `CC(=O)c1ccccc1NC(=O)c1cc(NC2CCN(C)CC2)nc(-c2ccccc2)n1` [Compound 143], the EC1.5 entry was “A (EC1.5≦1 uM)” and the Emax was at least 300%.
As to `Cc1ccc(NC(=O)c2ccccc2NC(=O)c2cc(NCCN(C)C)nc(-c3ccccc3)n2)cc1` [Compound 144, 6-(2-(dimethylamino)ethylamino)-2-phenyl-N-(2-(p-tolylcarbamoyl)phenyl)pyrimidine-4-carboxamide], the EC1.5 entry was “A (EC1.5≦1 uM)” and the Emax was 150 to 300%.
With `CN(C)CCNc1cc(C(=O)Nc2ccccc2C(=O)Nc2cccc(Cl)c2)nc(-c2ccccc2)n1` [Compound 145, N-(2-(3-chlorophenylcarbamoyl)phenyl)-6-(2-(dimethylamino)ethylamino)-2-phenylpyrimidine-4-carboxamide], the EC1.5 entry was “A (EC1.5≦1 uM)” and the Emax was at least 300%.
As to `Cc1cccc(NC(=O)c2ccccc2NC(=O)c2cc(NCCN(C)C)nc(-c3ccccc3)n2)c1` [Compound 146, 6-(2-(dimethylamino)ethylamino)-2-phenyl-N-(2-(m-tolylcarbamoyl)phenyl)pyrimidine-4-carboxamide], the EC1.5 entry was “B (EC1.5>1 and ≦10 uM)”; the Emax was at least 300%.
For the compound `CN(C)CCNc1cc(C(=O)Nc2ccccc2C(=O)Nc2cccc(C(N)=O)c2)nc(-c2ccccc2)n1` [Compound 147, N-(2-(3-carbamoylphenylcarbamoyl)phenyl)-6-(2-(dimethylamino)ethylamino)-2-phenylpyrimidine-4-carboxamide], the EC1.5 result is recorded as “A (EC1.5≦1 uM)” and the Emax was at least 300%.
For the compound `CSCCNC(=O)c1ccccc1NC(=O)c1cc(NCCN(C)C)nc(-c2ccccc2)n1` [Compound 148, 6-(2-(dimethylamino)ethylamino)-N-(2-(2-(methylthio)ethylcarbamoyl)phenyl)-2-phenylpyrimidine-4-carboxamide], the EC1.5 result was “B (EC1.5>1 and ≦10 uM)”; the Emax is at least 300%.
`CN(C)CCNc1cc(C(=O)Nc2ccccc2C(=O)NCCS(C)(=O)=O)nc(-c2ccccc2)n1` [Compound 149, 6-(2-(dimethylamino)ethylamino)-N-(2-(2-(methylsulfonyl)ethylcarbamoyl)phenyl)-2-phenylpyrimidine-4-carboxamide]: the EC1.5 result was “B (EC1.5>1 and ≦10 uM)”; the Emax lay in the range of 150 to 300%.
Take `CN(C)CCNc1cc(C(=O)Nc2ccccc2C(=O)Nc2ccccc2C(N)=O)nc(-c2ccccc2)n1` [Compound 150, N-(2-(2-carbamoylphenylcarbamoyl)phenyl)-6-(2-(dimethylamino)ethylamino)-2-phenylpyrimidine-4-carboxamide]: the EC1.5 result is reported as “A (EC1.5≦1 uM)” and the Emax is at least 300%.
As for `CN(C)CCNc1cc(C(=O)Nc2ccccc2C(=O)N(C)c2ccccc2)nc(-c2ccccc2)n1` [Compound 151, 6-(2-(dimethylamino)ethylamino)-N-(2-(methyl(phenyl)carbamoyl)phenyl)-2-phenylpyrimidine-4-carboxamide], the EC1.5 entry is on record as “C (EC1.5>10 uM)” and the Emax lay in the range of 150 to 300%.
Turning to `CN(C)CCNc1cc(C(=O)Nc2ccccc2C(=O)NCC[S+](C)[O-])nc(-c2ccccc2)n1` (stereo not drawn) [Compound 152, 6-(2-(dimethylamino)ethylamino)-N-(2-(2-(methylsulfinyl)ethylcarbamoyl)phenyl)-2-phenylpyrimidine-4-carboxamide], the EC1.5 result was “B (EC1.5>1 and ≦10 uM)”; the Emax was in the range of 150 to 300%.
As to `CN(C)CCNc1cc(C(=O)Nc2ccccc2C(=O)Nc2ccc(Cl)c(Cl)c2)nc(-c2ccccc2)n1` [Compound 153, N-(2-(3,4-dichlorophenylcarbamoyl)phenyl)-6-(2-(dimethylamino)ethylamino)-2-phenylpyrimidine-4-carboxamide], the EC1.5 entry is “C (EC1.5>10 uM)” and the Emax is 150 to 300%.
As for `CN(C)CCNc1cc(C(=O)Nc2ccccc2C(=O)Nc2cccc(S(C)(=O)=O)c2)nc(-c2ccccc2)n1` [Compound 154, 6-(2-(dimethylamino)ethylamino)-N-(2-(3-(methylsulfonyl)phenylcarbamoyl)phenyl)-2-phenylpyrimidine-4-carboxamide], the EC1.5 entry is on record as “A (EC1.5≦1 uM)” and the Emax is at least 300%.
For the compound `CN(C)CCNc1cc(C(=O)Nc2ccccc2C(=O)Nc2cccnc2)nc(-c2ccccc2)n1` [Compound 155, 6-(2-(dimethylamino)ethylamino)-2-phenyl-N-(2-(pyridin-3-ylcarbamoyl)phenyl)pyrimidine-4-carboxamide], the EC1.5 entry is given as “A (EC1.5≦1 uM)” and the Emax was at least 300%.
On to `CN(C)CCNc1cc(C(=O)Nc2ccccc2C(=O)Nc2ccncc2)nc(-c2ccccc2)n1` [Compound 156, 6-(2-(dimethylamino)ethylamino)-2-phenyl-N-(2-(pyridin-4-ylcarbamoyl)phenyl)pyrimidine-4-carboxamide], for which the EC1.5 result is on record as “A (EC1.5≦1 uM)” and the Emax is at least 300%.
On the same counts, the results for `CN(C)CCNc1cc(C(=O)Nc2ccccc2C(=O)Nc2ccc(C(N)=O)cc2)nc(-c2ccccc2)n1` [Compound 157, N-(2-(4-carbamoylphenylcarbamoyl)phenyl)-6-(2-(dimethylamino)ethylamino)-2-phenylpyrimidine-4-carboxamide] are “A (EC1.5≦1 uM)” and 150 to 300%.
`CN(C)CCNc1cc(C(=O)Nc2ccccc2C(=O)Nc2ccccn2)nc(-c2ccccc2)n1` [Compound 158, 6-(2-(dimethylamino)ethylamino)-2-phenyl-N-(2-(pyridin-2-ylcarbamoyl)phenyl)pyrimidine-4-carboxamide]: the EC1.5 result was “A (EC1.5≦1 uM)” and the Emax was 150 to 300%.
As for `CCN(CCN(C)C)c1cc(C(=O)Nc2ccccc2Br)nc(-c2ccccc2)n1` [Compound 159], the EC1.5 entry was “B (EC1.5>1 and ≦10 uM)”; the Emax is 150 to 300%.

Source of the values: patent publication US20110039847A1, “AMIDE DERIVATIVES AS SIRTUIN MODULATORS” (Sirtris Pharmaceuticals, Inc, priority 2007, published 2011).
